The values below are quoted from earlier work in US20210346403A1, “USE OF COMPOUNDS THAT TARGET MINERALOCORTICOID RECEPTORS FOR TREATING COVID-19” (priority 2020, published 2021).

The conditions of data set [1]: degraded by aminopeptidase A enzymes on red blood cells.
A further data set concerns the target T1, progestin receptor (Homo sapiens, UniProt P06401).
T1 sequence (P06401 1-933): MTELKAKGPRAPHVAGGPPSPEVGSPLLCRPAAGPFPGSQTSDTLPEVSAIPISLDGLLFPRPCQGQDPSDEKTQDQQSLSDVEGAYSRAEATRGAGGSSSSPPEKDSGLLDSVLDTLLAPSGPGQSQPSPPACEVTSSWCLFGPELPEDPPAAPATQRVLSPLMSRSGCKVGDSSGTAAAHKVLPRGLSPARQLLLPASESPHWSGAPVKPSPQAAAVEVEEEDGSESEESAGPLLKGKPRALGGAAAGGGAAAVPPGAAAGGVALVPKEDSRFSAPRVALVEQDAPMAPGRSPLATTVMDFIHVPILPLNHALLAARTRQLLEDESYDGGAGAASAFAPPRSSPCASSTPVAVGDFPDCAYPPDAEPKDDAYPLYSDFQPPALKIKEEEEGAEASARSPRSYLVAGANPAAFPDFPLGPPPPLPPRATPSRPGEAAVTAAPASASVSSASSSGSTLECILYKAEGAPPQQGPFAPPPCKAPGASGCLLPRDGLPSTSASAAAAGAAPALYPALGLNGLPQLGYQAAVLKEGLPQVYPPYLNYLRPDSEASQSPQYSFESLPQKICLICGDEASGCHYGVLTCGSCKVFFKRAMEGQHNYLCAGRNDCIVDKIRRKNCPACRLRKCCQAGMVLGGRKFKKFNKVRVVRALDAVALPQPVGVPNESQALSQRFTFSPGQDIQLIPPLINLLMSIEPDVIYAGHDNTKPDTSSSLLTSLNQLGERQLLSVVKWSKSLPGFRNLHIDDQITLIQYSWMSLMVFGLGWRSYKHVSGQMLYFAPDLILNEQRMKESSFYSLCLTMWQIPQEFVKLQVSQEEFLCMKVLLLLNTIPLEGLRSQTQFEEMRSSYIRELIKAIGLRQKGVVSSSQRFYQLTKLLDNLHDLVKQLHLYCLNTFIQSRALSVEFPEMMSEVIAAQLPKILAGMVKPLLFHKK
Particulars: fold lower affinity; comparator not stated explicitly (spironolactone or MR implied).

Data set [2] has as its target T2, mineralocorticoid receptor (MR) (Homo sapiens, UniProt P08235).
T2 sequence (P08235 1-984): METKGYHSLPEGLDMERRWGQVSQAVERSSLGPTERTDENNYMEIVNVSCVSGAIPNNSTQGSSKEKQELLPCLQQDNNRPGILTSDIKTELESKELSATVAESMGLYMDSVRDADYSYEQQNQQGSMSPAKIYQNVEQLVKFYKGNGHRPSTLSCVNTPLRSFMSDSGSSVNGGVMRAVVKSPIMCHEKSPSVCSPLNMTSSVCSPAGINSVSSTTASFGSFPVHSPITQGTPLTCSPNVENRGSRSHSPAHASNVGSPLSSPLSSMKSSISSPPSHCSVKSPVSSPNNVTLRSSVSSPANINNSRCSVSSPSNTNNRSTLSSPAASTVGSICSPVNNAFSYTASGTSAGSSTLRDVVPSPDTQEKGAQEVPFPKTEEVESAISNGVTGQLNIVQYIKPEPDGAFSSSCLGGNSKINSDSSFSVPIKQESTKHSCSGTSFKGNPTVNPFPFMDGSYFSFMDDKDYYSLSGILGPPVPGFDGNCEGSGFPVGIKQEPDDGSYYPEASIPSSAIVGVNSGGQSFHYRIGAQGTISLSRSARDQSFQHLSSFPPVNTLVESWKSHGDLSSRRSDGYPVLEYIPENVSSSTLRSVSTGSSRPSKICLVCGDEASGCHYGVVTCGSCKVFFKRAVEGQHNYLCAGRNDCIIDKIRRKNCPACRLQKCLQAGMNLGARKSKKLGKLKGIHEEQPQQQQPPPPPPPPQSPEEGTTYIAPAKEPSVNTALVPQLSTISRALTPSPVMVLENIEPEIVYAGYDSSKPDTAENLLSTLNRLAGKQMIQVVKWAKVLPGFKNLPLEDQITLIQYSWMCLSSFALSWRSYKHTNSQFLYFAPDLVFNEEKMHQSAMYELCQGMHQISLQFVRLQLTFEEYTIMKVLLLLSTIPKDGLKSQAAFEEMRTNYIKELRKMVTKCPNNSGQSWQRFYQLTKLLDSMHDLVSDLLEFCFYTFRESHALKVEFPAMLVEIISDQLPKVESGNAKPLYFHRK
Particulars: versus other steroid receptors, in words.

Turning to “angiotensin-2 (DRVYIHPF; Angiotensin-2; UniProt P01019 25-32, looked up) [AngII]”, the half-life in data set [1] is 30 s.

Take `COC(=O)[C@@H]1CC2=CC(=O)CC[C@]2(C)[C@@]23O[C@@H]2C[C@@]2(C)[C@@H](CC[C@@]24CCC(=O)O4)[C@H]13` [Eplerenone, eplerenone]: the “lower affinity for the progestin receptor” value on progestin receptor is 500 fold.

On to `CC(=O)S[C@@H]1CC2=CC(=O)CC[C@]2(C)[C@H]2CC[C@@]3(C)[C@@H](CC[C@@]34CCC(=O)O4)[C@H]12` [Spironolactone, spironolactone], for which the “selectivity for the MR” value in data set [2] was “less selective for the MR”.

In general, half-life refers to the time needed for the level to fall by half in the phase considered.
